Results from ChEMBL document CHEMBL5465560, “Selectivity Literature for EUbOPEN Chemogenomic Library” (2024).

What was measured:
[1] = biological target: T1, NUAK family SNF1-like kinase 1 (Homo sapiens) (UniProt O60285); conditions: at 10 µM
T1 sequence (whole entry): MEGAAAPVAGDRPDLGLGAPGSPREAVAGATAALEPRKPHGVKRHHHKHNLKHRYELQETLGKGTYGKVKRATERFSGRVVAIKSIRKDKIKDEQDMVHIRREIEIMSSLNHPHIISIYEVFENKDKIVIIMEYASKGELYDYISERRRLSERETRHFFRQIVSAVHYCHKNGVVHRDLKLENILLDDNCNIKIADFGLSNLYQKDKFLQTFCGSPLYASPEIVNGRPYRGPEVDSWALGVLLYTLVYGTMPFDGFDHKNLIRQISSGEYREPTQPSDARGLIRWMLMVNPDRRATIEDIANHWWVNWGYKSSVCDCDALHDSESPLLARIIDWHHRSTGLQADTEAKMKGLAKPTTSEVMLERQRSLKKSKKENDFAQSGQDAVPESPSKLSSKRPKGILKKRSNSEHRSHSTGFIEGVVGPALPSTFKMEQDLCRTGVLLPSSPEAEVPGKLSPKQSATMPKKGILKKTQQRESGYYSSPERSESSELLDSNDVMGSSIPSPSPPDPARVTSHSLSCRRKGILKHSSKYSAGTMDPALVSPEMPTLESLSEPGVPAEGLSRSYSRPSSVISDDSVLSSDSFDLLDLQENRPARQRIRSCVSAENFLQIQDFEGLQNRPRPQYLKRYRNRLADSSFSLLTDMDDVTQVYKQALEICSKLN

[2] = biological target: T2, Serine/threonine-protein kinase ULK3 (Homo sapiens) (UniProt Q6PHR2); experiment: Selectivity interaction (KinomeScan (DiscoverX)) EUB0001619a ULK3; conditions: at 1 µM
T2 sequence (whole entry): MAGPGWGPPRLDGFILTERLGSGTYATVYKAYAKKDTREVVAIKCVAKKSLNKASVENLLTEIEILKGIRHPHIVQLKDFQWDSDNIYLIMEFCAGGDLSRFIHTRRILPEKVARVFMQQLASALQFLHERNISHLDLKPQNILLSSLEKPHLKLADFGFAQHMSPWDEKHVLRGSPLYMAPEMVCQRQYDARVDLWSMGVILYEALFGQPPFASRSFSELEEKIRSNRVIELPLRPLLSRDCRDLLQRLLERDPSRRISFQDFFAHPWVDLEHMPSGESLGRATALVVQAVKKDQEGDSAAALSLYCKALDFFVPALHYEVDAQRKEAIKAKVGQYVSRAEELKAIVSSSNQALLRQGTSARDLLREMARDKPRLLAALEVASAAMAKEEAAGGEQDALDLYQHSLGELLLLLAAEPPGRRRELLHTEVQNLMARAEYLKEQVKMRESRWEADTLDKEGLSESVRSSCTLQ

[3] = biological target: Serine/threonine-protein kinase B-raf (Homo sapiens) (UniProt P15056); experiment: Selectivity interaction (SelectScreen profiling (Invitrogen)) EUB0000607a BRAF; conditions: at 2 µM
Sequence of Serine/threonine-protein kinase B-raf (Homo sapiens) (P15056 whole entry): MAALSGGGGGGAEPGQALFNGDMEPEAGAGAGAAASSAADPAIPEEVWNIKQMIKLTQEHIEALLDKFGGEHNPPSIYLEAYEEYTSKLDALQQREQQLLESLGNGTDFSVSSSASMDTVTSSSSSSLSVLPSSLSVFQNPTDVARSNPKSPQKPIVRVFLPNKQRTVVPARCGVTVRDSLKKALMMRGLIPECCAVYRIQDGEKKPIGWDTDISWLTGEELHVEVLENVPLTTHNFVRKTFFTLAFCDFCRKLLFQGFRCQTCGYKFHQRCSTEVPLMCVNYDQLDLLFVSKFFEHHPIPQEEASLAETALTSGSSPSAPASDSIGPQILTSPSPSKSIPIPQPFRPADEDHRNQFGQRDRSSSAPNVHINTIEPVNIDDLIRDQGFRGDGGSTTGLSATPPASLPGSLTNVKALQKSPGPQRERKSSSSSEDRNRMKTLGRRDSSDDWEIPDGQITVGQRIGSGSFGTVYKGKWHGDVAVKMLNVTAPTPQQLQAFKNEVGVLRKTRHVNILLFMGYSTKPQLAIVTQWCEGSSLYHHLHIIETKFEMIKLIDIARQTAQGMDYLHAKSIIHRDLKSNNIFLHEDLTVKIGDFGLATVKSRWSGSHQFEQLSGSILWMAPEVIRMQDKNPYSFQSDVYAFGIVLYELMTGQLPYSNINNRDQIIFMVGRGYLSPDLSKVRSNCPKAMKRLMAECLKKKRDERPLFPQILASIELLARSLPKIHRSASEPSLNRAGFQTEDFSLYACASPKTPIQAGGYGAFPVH

[4] = biological target: Non-receptor tyrosine-protein kinase TYK2 (Homo sapiens, UniProt P29597); experiment: Selectivity interaction (ActivX KiNativ screen (kinase selectivity in THP-1 cell lysates)) EUB0000639a TYK2; type: subcellular; conditions: lysate
Sequence of Non-receptor tyrosine-protein kinase TYK2 (P29597 whole entry): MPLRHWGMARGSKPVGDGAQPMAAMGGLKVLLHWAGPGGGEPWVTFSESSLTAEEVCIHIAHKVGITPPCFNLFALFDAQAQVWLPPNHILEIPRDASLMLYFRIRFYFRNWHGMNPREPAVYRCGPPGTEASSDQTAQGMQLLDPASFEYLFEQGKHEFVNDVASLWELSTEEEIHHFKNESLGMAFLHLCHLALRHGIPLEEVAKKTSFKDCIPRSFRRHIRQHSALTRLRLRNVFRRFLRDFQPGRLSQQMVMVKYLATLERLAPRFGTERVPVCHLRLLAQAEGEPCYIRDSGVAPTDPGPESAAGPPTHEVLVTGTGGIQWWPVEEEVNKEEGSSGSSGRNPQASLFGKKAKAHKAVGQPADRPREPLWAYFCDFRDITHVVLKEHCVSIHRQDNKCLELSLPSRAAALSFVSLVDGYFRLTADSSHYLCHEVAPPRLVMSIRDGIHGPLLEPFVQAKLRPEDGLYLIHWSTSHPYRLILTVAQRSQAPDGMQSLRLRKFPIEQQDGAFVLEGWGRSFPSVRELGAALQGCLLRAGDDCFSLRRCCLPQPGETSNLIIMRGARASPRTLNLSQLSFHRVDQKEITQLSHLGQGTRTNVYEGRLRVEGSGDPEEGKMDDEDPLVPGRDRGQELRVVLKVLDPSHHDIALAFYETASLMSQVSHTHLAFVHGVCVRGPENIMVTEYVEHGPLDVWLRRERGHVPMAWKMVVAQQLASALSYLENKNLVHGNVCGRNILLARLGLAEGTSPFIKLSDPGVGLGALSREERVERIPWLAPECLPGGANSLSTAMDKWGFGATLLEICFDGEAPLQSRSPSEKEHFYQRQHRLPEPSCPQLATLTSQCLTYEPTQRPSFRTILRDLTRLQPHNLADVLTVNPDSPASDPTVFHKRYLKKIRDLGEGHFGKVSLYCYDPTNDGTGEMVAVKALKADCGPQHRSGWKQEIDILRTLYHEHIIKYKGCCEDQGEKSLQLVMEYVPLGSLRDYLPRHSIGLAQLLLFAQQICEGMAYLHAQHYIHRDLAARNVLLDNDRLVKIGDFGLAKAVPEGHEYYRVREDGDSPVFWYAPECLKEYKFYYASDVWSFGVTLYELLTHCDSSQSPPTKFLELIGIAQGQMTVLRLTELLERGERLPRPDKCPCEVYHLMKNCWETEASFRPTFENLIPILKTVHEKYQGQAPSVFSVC

[5] = biological target: T3, Protein kinase C epsilon type (Homo sapiens) (UniProt Q02156); conditions: at 10 µM
T3 sequence (whole entry): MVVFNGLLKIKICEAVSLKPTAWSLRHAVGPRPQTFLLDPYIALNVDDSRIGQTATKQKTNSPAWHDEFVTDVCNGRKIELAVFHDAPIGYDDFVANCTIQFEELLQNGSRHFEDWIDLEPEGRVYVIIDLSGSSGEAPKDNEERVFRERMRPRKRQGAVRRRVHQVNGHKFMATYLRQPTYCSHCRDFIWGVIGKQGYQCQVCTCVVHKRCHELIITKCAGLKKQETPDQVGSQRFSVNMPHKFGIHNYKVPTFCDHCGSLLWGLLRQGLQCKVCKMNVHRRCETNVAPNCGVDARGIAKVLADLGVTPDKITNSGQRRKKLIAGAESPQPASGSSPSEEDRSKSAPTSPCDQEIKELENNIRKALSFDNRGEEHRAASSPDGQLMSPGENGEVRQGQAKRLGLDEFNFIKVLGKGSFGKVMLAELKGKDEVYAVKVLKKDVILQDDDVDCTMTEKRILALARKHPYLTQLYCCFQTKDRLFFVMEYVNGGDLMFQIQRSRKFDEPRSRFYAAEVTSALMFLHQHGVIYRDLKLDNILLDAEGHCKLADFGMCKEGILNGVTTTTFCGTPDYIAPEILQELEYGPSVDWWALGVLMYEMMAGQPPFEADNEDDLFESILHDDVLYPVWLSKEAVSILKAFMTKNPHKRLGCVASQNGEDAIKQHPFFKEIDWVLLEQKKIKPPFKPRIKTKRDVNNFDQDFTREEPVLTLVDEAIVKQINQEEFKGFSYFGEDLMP

[6] = biological target: Calcium/calmodulin-dependent protein kinase kinase 2 (Homo sapiens) (UniProt Q96RR4); experiment: Selectivity interaction (KinomeScan (DiscoverX)) EUB0000092b CAMKK2; conditions: at 10 µM
Sequence of Calcium/calmodulin-dependent protein kinase kinase 2 (Homo sapiens) (Q96RR4 2-588 limits assumed): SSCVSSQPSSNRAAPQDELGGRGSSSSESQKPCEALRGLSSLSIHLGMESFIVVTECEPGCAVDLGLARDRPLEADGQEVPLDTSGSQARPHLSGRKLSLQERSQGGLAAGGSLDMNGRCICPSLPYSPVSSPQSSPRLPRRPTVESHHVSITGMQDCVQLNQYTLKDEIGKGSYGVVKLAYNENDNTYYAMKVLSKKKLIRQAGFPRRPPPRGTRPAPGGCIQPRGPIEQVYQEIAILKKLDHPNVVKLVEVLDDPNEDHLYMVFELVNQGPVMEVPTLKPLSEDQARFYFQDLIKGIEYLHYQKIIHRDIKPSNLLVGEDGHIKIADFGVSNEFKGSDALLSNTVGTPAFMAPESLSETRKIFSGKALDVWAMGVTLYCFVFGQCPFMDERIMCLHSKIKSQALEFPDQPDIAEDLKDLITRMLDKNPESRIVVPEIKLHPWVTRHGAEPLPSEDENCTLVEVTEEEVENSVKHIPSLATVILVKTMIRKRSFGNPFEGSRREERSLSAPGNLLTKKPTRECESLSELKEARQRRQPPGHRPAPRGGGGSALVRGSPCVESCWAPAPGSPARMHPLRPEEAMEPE

[7] = tested on: eIF-2-alpha kinase GCN2 (Homo sapiens), Q9P2K8 [S808G]; experiment: Selectivity interaction (Ambit KINOMEscan and KiNATiv profiling in Jurkat cells) EUB0000090b EIF2AK4; type: cell-based; conditions: at 1 µM
Sequence of eIF-2-alpha kinase GCN2 (Homo sapiens), Q9P2K8 [S808G] (Q9P2K8 whole entry S808G): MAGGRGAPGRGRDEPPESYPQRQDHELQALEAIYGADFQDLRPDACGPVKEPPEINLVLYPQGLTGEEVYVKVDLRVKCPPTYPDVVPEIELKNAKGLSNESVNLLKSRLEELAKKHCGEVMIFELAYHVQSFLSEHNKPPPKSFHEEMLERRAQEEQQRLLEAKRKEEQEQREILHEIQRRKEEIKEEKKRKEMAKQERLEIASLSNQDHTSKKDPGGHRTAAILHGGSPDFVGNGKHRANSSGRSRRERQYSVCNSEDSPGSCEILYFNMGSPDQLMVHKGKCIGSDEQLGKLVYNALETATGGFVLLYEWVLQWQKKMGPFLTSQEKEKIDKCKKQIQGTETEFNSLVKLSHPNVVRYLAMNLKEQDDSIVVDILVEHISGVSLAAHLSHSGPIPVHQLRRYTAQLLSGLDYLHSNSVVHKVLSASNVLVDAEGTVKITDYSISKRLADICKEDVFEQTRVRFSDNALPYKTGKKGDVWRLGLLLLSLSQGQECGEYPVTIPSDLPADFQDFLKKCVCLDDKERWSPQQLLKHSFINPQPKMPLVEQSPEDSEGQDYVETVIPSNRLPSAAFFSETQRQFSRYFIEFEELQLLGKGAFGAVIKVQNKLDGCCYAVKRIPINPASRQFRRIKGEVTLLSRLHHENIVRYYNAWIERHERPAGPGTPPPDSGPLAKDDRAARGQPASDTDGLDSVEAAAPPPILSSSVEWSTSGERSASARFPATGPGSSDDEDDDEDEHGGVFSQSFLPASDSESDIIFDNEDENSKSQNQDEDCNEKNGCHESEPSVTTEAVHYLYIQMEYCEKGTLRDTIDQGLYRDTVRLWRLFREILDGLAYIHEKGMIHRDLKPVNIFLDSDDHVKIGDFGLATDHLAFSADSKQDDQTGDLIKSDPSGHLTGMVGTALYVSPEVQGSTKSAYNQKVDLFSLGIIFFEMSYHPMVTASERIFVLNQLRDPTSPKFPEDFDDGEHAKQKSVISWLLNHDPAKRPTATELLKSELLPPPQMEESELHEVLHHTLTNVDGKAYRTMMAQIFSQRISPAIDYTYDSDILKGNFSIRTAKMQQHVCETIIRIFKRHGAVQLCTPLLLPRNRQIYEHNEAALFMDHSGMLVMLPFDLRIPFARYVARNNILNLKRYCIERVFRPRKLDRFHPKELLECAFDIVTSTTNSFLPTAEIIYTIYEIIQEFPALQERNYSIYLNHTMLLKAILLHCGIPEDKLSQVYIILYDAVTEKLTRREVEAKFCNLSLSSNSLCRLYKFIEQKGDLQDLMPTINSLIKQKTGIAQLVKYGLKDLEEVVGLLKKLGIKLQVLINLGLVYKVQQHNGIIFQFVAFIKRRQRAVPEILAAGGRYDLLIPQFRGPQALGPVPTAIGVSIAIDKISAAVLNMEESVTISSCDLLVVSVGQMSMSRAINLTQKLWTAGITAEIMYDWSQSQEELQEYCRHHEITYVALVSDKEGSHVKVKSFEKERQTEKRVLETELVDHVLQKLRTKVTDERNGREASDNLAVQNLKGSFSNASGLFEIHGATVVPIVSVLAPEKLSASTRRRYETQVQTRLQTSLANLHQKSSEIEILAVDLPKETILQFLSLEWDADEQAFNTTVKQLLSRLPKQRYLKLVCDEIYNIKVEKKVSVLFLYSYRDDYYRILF

Structure (SMILES): Cc1cc([C@@H](C)Nc2ccccc2C(=O)O)c2nc(N3CCOCC3)cc(=O)n2c1 [AZD-6482]
- % of control [1]: 100%

Structure (SMILES): N#Cc1cccc(-c2c[nH]c3ncnc(N4CCOCC4)c23)c1
- % of control [2]: 25%

Structure (SMILES): CNC(=O)Nc1ccc(-c2nc(N3CC4CCC(C3)O4)c3cnn(C4CCC5(CC4)OCCO5)c3n2)cc1
- % of inhibition [3]: 6%

Structure (SMILES): CC[C@@H]1[C@H](F)C(=O)N[C@@H]1COc1nccc2cc(C(N)=O)c(OC)cc12 [ZIMLOVISERTIB]
- % of inhibition ([4]; at 0.01 µM): 1.5%
- % of inhibition ([4]; at 0.04 µM): 4%
- % of inhibition ([4]; at 0.2 µM): 2.3%
- % of inhibition ([4]; at 1 µM): 12.6%
- % of inhibition ([4]; at 5 µM): 19.4%

Structure (SMILES): CCN(CC)CCCCNc1ncc2cc(-c3cc(OC)cc(OC)c3)c(NC(=O)NC(C)(C)C)nc2n1
- % of control [5]: 100%

Structure (SMILES): CCC(=O)N1CCN(c2ccc(-n3c(=O)ccc4cnc5ccc(-c6cnc7ccccc7c6)cc5c43)cc2C(F)(F)F)CC1
- % of control [6]: 85%

Structure (SMILES): CN(C)C/C=C/C(=O)Nc1ccc(C(=O)N2CCCC(Nc3ncc(Cl)c(-c4c[nH]c5ccccc45)n3)C2)cc1 (stereo unspecified)
- % of control [7]: 64%
